Test results published in PubChem BioAssay (NCI).
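96-well plates; 48 h exposure; 5 concentrations. Endpoints by linear interpolation between flanking doses. Not reached: highest tested concentration assigned. TGI is the concentration that stops growth completely.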

Key:
Assay in all cases: DTP human tumour cell line panel, 48 h
786-0 renal = test system: 786-0 renal
A498 renal = test system: A498 renal
A549 NSCLC = test system: A549 NSCLC
ACHN renal = test system: ACHN renal
BT-549 breast = test system: BT-549 breast
CAKI-1 renal = test system: CAKI-1 renal
CCRF-CEM leukemia = test system: CCRF-CEM leukemia
COLO 205 colon = test system: COLO 205 colon
EKVX NSCLC = test system: EKVX NSCLC
HCC-2998 colon = test system: HCC-2998 colon
HCT-116 colon = test system: HCT-116 colon
HCT-15 colon = test system: HCT-15 colon
HL-60(TB) leukemia = test system: HL-60(TB) leukemia
HOP-62 NSCLC = test system: HOP-62 NSCLC
HOP-92 NSCLC = test system: HOP-92 NSCLC
HS 578T breast = test system: HS 578T breast
HT29 colon = test system: HT29 colon
IGROV1 ovarian = test system: IGROV1 ovarian
K-562 leukemia = test system: K-562 leukemia
KM12 colon = test system: KM12 colon
M14 melanoma = test system: M14 melanoma
MALME-3M melanoma = test system: MALME-3M melanoma
MCF7 breast = test system: MCF7 breast
MDA-MB-231 breast = test system: MDA-MB-231 breast
MDA-MB-435 = test system: MDA-MB-435
MDA-N = test system: MDA-N
MOLT-4 leukemia = test system: MOLT-4 leukemia
NCI-H226 lung = test system: NCI-H226 lung
NCI-H23 lung = test system: NCI-H23 lung
NCI-H522 lung = test system: NCI-H522 lung
NCI/ADR-RES ovarian = test system: NCI/ADR-RES ovarian
OVCAR-4 ovarian = test system: OVCAR-4 ovarian
OVCAR-5 ovarian = test system: OVCAR-5 ovarian
OVCAR-8 ovarian = test system: OVCAR-8 ovarian
PC-3 prostate = test system: PC-3 prostate
RPMI-8226 leukemia = test system: RPMI-8226 leukemia
RXF 393 renal = test system: RXF 393 renal
SF-268 CNS = test system: SF-268 CNS
SF-539 CNS = test system: SF-539 CNS
SK-MEL-2 melanoma = test system: SK-MEL-2 melanoma
SK-MEL-28 melanoma = test system: SK-MEL-28 melanoma
SK-MEL-5 melanoma = test system: SK-MEL-5 melanoma
SNB-19 CNS = test system: SNB-19 CNS
SNB-75 CNS = test system: SNB-75 CNS
SR leukemia = test system: SR leukemia
SW-620 colon = test system: SW-620 colon
TK-10 renal = test system: TK-10 renal
U251 CNS = test system: U251 CNS
UACC-257 melanoma = test system: UACC-257 melanoma
UACC-62 melanoma = test system: UACC-62 melanoma
UO-31 renal = test system: UO-31 renal
DU-145 prostate = test system: DU-145 prostate
LOX IMVI melanoma = test system: LOX IMVI melanoma
NCI-H460 lung = test system: NCI-H460 lung
OVCAR-3 ovarian = test system: OVCAR-3 ovarian
SF-295 CNS = test system: SF-295 CNS
SK-OV-3 ovarian = test system: SK-OV-3 ovarian
SN12C renal = test system: SN12C renal
T-47D breast = test system: T-47D breast

O=C(/C=C/c1cc(F)ccc1F)OCCc1ccccc1
TGI (786-0 renal): > 100 µM
TGI (A498 renal): > 100 µM
TGI (A549 NSCLC): > 100 µM
TGI (ACHN renal): > 100 µM
TGI (BT-549 breast): > 100 µM
TGI (CAKI-1 renal): > 100 µM
TGI (CCRF-CEM leukemia): > 100 µM
TGI (COLO 205 colon): > 100 µM
TGI (EKVX NSCLC): > 100 µM
TGI (HCC-2998 colon): > 100 µM
TGI (HCT-116 colon): > 100 µM
TGI (HCT-15 colon): > 100 µM
TGI (HL-60(TB) leukemia): 79.9 µM
TGI (HOP-62 NSCLC): > 100 µM
TGI (HOP-92 NSCLC): > 100 µM
TGI (HS 578T breast): > 100 µM
TGI (HT29 colon): > 100 µM
TGI (IGROV1 ovarian): > 100 µM
TGI (K-562 leukemia): > 100 µM
TGI (KM12 colon): > 100 µM
TGI (M14 melanoma): > 100 µM
TGI (MALME-3M melanoma): > 100 µM
TGI (MCF7 breast): > 100 µM
TGI (MDA-MB-231 breast): > 100 µM
TGI (MDA-MB-435): > 100 µM
TGI (MDA-N): > 100 µM
TGI (MOLT-4 leukemia): > 100 µM
TGI (NCI-H226 lung): > 100 µM
TGI (NCI-H23 lung): > 100 µM
TGI (NCI-H522 lung): > 100 µM
TGI (NCI/ADR-RES ovarian): > 100 µM
TGI (OVCAR-4 ovarian): 47.4 µM
TGI (OVCAR-5 ovarian): > 100 µM
TGI (OVCAR-8 ovarian): > 100 µM
TGI (PC-3 prostate): > 100 µM
TGI (RPMI-8226 leukemia): > 100 µM
TGI (RXF 393 renal): > 100 µM
TGI (SF-268 CNS): > 100 µM
TGI (SF-539 CNS): > 100 µM
TGI (SK-MEL-2 melanoma): > 100 µM
TGI (SK-MEL-28 melanoma): > 100 µM
TGI (SK-MEL-5 melanoma): > 100 µM
TGI (SNB-19 CNS): > 100 µM
TGI (SNB-75 CNS): > 100 µM
TGI (SR leukemia): > 100 µM
TGI (SW-620 colon): > 100 µM
TGI (TK-10 renal): > 100 µM
TGI (U251 CNS): > 100 µM
TGI (UACC-257 melanoma): > 100 µM
TGI (UACC-62 melanoma): > 100 µM
TGI (UO-31 renal): > 100 µM

CN(C)C=NCc1ccc2c(c1)OCO2
TGI (786-0 renal): > 100 µM
TGI (A498 renal): > 100 µM
TGI (A549 NSCLC): > 100 µM
TGI (ACHN renal): > 100 µM
TGI (CAKI-1 renal): > 100 µM
TGI (CCRF-CEM leukemia): > 100 µM
TGI (COLO 205 colon): > 100 µM
TGI (DU-145 prostate): > 100 µM
TGI (EKVX NSCLC): > 100 µM
TGI (HCC-2998 colon): > 100 µM
TGI (HCT-116 colon): > 100 µM
TGI (HCT-15 colon): > 100 µM
TGI (HOP-62 NSCLC): > 100 µM
TGI (HOP-92 NSCLC): > 100 µM
TGI (HS 578T breast): > 100 µM
TGI (HT29 colon): > 100 µM
TGI (IGROV1 ovarian): > 100 µM
TGI (K-562 leukemia): > 100 µM
TGI (KM12 colon): > 100 µM
TGI (LOX IMVI melanoma): > 100 µM
TGI (M14 melanoma): > 100 µM
TGI (MALME-3M melanoma): > 100 µM
TGI (MCF7 breast): > 100 µM
TGI (MDA-MB-231 breast): > 100 µM
TGI (MDA-MB-435): > 100 µM
TGI (MDA-N): > 100 µM
TGI (MOLT-4 leukemia): > 100 µM
TGI (NCI-H226 lung): > 100 µM
TGI (NCI-H23 lung): > 100 µM
TGI (NCI-H460 lung): > 100 µM
TGI (NCI-H522 lung): > 100 µM
TGI (NCI/ADR-RES ovarian): > 100 µM
TGI (OVCAR-3 ovarian): > 100 µM
TGI (OVCAR-4 ovarian): > 100 µM
TGI (OVCAR-5 ovarian): > 100 µM
TGI (OVCAR-8 ovarian): > 100 µM
TGI (PC-3 prostate): > 100 µM
TGI (RPMI-8226 leukemia): > 100 µM
TGI (RXF 393 renal): > 100 µM
TGI (SF-268 CNS): > 100 µM
TGI (SF-295 CNS): > 100 µM
TGI (SF-539 CNS): > 100 µM
TGI (SK-MEL-2 melanoma): > 100 µM
TGI (SK-MEL-28 melanoma): > 100 µM
TGI (SK-MEL-5 melanoma): > 100 µM
TGI (SK-OV-3 ovarian): > 100 µM
TGI (SN12C renal): > 100 µM
TGI (SNB-19 CNS): > 100 µM
TGI (SNB-75 CNS): > 100 µM
TGI (SR leukemia): > 100 µM
TGI (SW-620 colon): > 100 µM
TGI (T-47D breast): > 100 µM
TGI (TK-10 renal): > 100 µM
TGI (U251 CNS): > 100 µM
TGI (UACC-257 melanoma): > 100 µM
TGI (UACC-62 melanoma): > 100 µM
TGI (UO-31 renal): > 100 µM
